Results on three molecules are retold here after US7795306B2, “Triterpene derivatives for the treatment of cancer and inflammatory disease by inhibition of NF-κB” (priority 2006, dated 2010).

Test [1] concerns SiHa. Put plainly: cell proliferation by MTS assay for 72 h, SiHa. It counts as cell-based, human. Conditions: SiHa tumor cell line. The text has this: (§1) PM 2011 (1) inhibits tumor cell lines independent of endothelin receptor A (ETA) inhibition: Others have disclosed PM 2011 (1) and its derivatives as potent endothelin receptor antagonists (WO 92/12991, EP 526,642, U.S. Pat. No. 5,248,807, U.S. Pat. No. 5,463,107 and U.S. Pat. No. 5,587,505). We have used human tumor cell lines to evaluate the effects of PM 2011 (1) on endothelin-1 (ET-1) dependent biologic functions. Some of these cell lines are well characterized for the expression and role of ET-1, ETA and ETB (16, 41). […] To validate three cell lines, we studied the effects of BQ123, BQ788, PM2010, PM2011 and PM2012 on cell proliferation by MTS assay for 72 h (16).
Background: Tetrazolium assays rely on reduction of a dye to a coloured formazan, in cell work by metabolically active cells.

Test [2] relates to SK-Mel-28. Kind of test: cell proliferation by MTS assay for 72 h, SK-Mel-28. It is filed as cell-based, human. To be noted: for growth inhibition of SK-Mel 28 cell line (in words): SK-Mel 28, MTS assay.
Excerpt: as §1

Test [3] concerns C33A. Put plainly: cell proliferation by MTS assay for 72 h, C33A. It is filed as cell-based, human.
Excerpt: as §1

Test [4] deals with HL60. Put plainly: cell proliferation by MTS assay for 72 h, HL60. It is filed as cell-based, human.
Excerpt: as §1

Test [5] deals with K562. Kind of test: cell proliferation by MTS assay for 72 h, K562. Conditions: K562 tumor cell line. It counts as cell-based, human.
Excerpt: as §1

Test [6] relates to NF-κB. Put plainly: TNF-α-dependent activation of NF-κB binding to κB site in nuclear extracts of HeLa cells, ELISA (Panomics). It counts as cell-based. Conditions: HeLa cell nuclear extracts, FIG. 1. An excerpt:
To further explore the additional molecular target(s) for PM2011, we postulated that these compounds could antagonize the activation of NF-κB. To test this hypothesis, we evaluated the effects of PM2010, PM2011 and PM2012 on TNF-α-dependent activation of NF-κB binding to κB site in nuclear extracts of HeLa cells by an ELISA (Panomics) as recommended.

The mark [7] stands for this setting: Homo sapiens, 100 μM, read-out: % Inhibition at 100 μM (i).

Entries after “also recorded” stand apart in the source; their conditions may differ. Square brackets hold non-standard residues; d marks the D form. Peptide text beside a SMILES is read from it.

For the molecule `CCCC[C@@H](NC(=O)[C@@H](Cc1cn(C(=O)OC)c2ccccc12)NC(=O)[C@H](CC(C)(C)C)NC(=O)N1[C@H](C)CCC[C@@H]1C)C(=O)O` [BQ788], the inhibition (in general, the percentage by which the read-out fell short of the control) at 100 µM worked out at 45% in test [1] (setting [7]) and 0% in test [5] (setting [7]). The half-maximal inhibitory concentration (IC50) (usually the midpoint of a concentration-inhibition curve) came out at 82000 nM in test [2] (Homo sapiens, SK-Mel-28 tumor cell line, MTS assay); 61800 nM in test [3] (Homo sapiens, C-33-A, C33A tumor cell line, MTS assay, 72 h); 45000 nM in test [4] (Homo sapiens, HL-60, HL60 tumor cell line). The “growth inhibition of SK-Mel 28 cell line (in words)” value in test [2] is listed as “inhibited the growth”.

On to `CC(C)C[C@@H]1NC(=O)[C@@H](C(C)C)NC(=O)[C@@H]2CCCN2C(=O)[C@@H](CC(=O)O)NC(=O)[C@@H](Cc2c[nH]c3ccccc23)NC1=O` [BQ-123] (cyclo(L[dW][dD]P[dV])), for which the “% Inhibition at 100 μM (i)” value worked out at 0% i in test [1] (100 μM); 0% i in test [2] (SK-Mel-28 tumor cell line, 100 μM, MTS assay); 20% i in test [3] (C33A tumor cell line, 100 μM, MTS assay, 72 h); 30% in test [5] (100 μM). Moreover, the “growth inhibition of SK-Mel 28 cell line (in words)” value in test [2] is given as “no growth inhibition”. The molecule further gave a half-inhibitory concentration (IC50) in test [4] (HL60 tumor cell line) of 46000 nM.

Myriceric acid A [PM2011]: the IC50 in test [1] was 3000 nM; in test [2] (SK-Mel-28 tumor cell line, MTS assay), 900 nM; in test [3] (C33A tumor cell line, MTS assay, 72 h), 1300 nM; in test [4] (HL60 tumor cell line), 2300 nM; in test [5], 1000 nM. In test [6], the “NF-κB binding to κB site / inhibition of NF-κB activation (in words)” value was “dose-dependent inhibition; also recorded: dose-dependent decrease”. The “inhibition of C33A (in words)” value in test [3] (HPV-negative cell line C33A, neither secretes ET-1 nor expresses ETA) is listed as “inhibition”.
